These results are taken from ChEMBL document CHEMBL4828727, “Antibacterial and antitumoral properties of 1,2,3-triazolo fused triterpenes and their mechanism of inhibiting the proliferation of HL-60 cells” (Eur J Med Chem, 2021).

In brackets after ≈: the same amount, converted by molar mass.

Assay [1] has as its system HL-60. The experiment in a line: Induction of apoptosis in human HL-60 cells assessed as live cells at 8 uM after 48 hrs by Annexin V-PE/7-AAD dual staining based flow cytometry (reference value: 90.1 to 90.7%). Type of assay: functional. On the technique in general: A flow cytometer gives signals particle by particle.
For assay [2], the system named is HL-60. The experiment in a line: Induction of apoptosis in human HL-60 cells assessed as live cells at 10 uM after 48 hrs by Annexin V-PE/7-AAD dual staining based flow cytometry (reference value: 90.1 to 90.7%). Type of assay: functional.
The subject of assay [3] is HL-60. The experiment in a line: Cell cycle arrest in human HL-60 cells assessed as accumulation of cells at G2/M phase at 8 uM incubated for 48 hrs by propidium iodide based flow cytometric analysis (reference value: 6.61%). Type of assay: functional.
Assay [4] relates to HL-60. The experiment in a line: Cell cycle arrest in human HL-60 cells assessed as accumulation of cells at G2/M phase at 6 uM incubated for 48 hrs by propidium iodide staining based flow cytometric analysis (reference value: 6.61%). Type of assay: functional.
Assay [5] deals with HL-60. The experiment in a line: Induction of apoptosis in human HL-60 cells assessed as live cells at 6 uM after 48 hrs by Annexin V-PE/7-AAD dual staining based flow cytometry (reference value: 90.1 to 90.7%). It counts as functional.
Assay [6] deals with HL-60. The experiment in a line: Induction of apoptosis in human HL-60 cells assessed as late apoptotic cells at 8 uM after 48 hrs by Annexin V-PE/7-AAD dual staining based flow cytometry (Rvb =3.93%). It counts as functional.
Assay [7] has as its system HL-60. The experiment in a line: Induction of apoptosis in human HL-60 cells assessed as necrotic cells at 8 uM in presence of 3-MA after 48 hrs by Annexin V-PE and 7AAD based flow cytometry (reference value: 2.62%). Type of assay: functional.
Assay [8] has as its system HL-60. The experiment in a line: Cell cycle arrest in human HL-60 cells assessed as decrease in accumulation in S phase at 8 uM incubated for 48 hrs by propidium iodide based flow cytometric analysis (reference value: 28.42%). On the set-up: scale not given: the % may be the effect or the level left. Type of assay: functional.
Assay [9] can be described thus: Antiproliferative activity against human DND41 cells assessed as inhibition of cell viability measured after 72 hrs by real-time IncuCyte proliferation analysis. It counts as functional, cell-based. The settings on record: DND41, 72 h.
Assay [10] has as its system HL-60. The experiment in a line: Induction of apoptosis in human HL-60 cells assessed as late apoptotic cells at 10 uM after 48 hrs by Annexin V-PE/7-AAD dual staining based flow cytometry (reference value: 3.93%). It counts as functional.
Assay [11] has as its system HL-60. The experiment in a line: Induction of apoptosis in human HL-60 cells assessed as late apoptotic cells at 8 uM in presence of 3-MA after 48 hrs by Annexin V-PE and 7AAD based flow cytometry (reference value: 3.12%). Type of assay: functional.
The test system of another assay is K562. The experiment in a line: cells. It counts as functional, cell-based. The settings on record: Homo sapiens, K562, 72 h.
Assay [12] has as its system HL-60. The experiment in a line: Induction of apoptosis in human HL-60 cells assessed as early apoptotic cells at 8 uM in presence of 3-MA after 48 hrs by Annexin V-PE/7-AAD dual staining based flow cytometry (reference value: 3.14%). Type of assay: functional.
Assay [13] has as its system HL-60. The experiment in a line: Induction of apoptosis in human HL-60 cells assessed as early apoptotic cells at 6 uM in presence of 3-MA after 48 hrs by Annexin V-PE/7-AAD dual staining based flow cytometry (reference value: 3.14%). It counts as functional.
A further assay has as its system Escherichia coli. The experiment in a line: Antibacterial activity against Escherichia coli ATCC47076 assessed as growth inhibition after 20 hrs by broth microdilution method. Type of assay: functional.
The subject of assay [14] is HL-60. The experiment in a line: Induction of mitochondrial membrane potential loss in human HL-60 cells at 10 uM after 48 hrs by JC-1 staining based flow cytometry (reference value: 3.49%). Type of assay: functional.
Assay [15] has as its system HL-60. The experiment in a line: Cell cycle arrest in human HL-60 cells assessed as increase in accumulation in G0/G1 phase at 10 uM incubated for 48 hrs by propidium iodide based flow cytometric analysis (Rvb =64.97%). Type of assay: functional.
The subject of a further assay is MV4-11. The experiment in a line: cells. It counts as functional, cell-based. Conditions: Homo sapiens, MV4-11, 72 h.
In the next assay the test system is HCT-116. The experiment in a line: Antiproliferative activity against human HCT-116 cells assessed as inhibition of cell viability measured after 72 hrs by colorimetric MTS viability assay. Type of assay: functional, cell-based. The settings on record: HCT-116, 72 h. Background: Formazan colour is commonly taken as a measure of viable cells.

Description for K562: Antiproliferative activity against human K562 cells assessed as inhibition of cell viability measured after 72 hrs by real-time IncuCyte proliferation analysis
Description for MV4-11: Cytotoxicity against human MV4-11cells assessed as inhibition of cell viability measured after 72 hrs by real-time IncuCyte proliferation analysis

`COc1ccc2[nH]cc(CCn3nnc4c3C(C)(C)[C@@H]3CC[C@]5(C)[C@H](CC=C6[C@@H]7CC(C)(C)CC[C@]7(C(=O)O)CC[C@]65C)[C@@]3(C)C4)c2c1`: the Activity in the assay with HL-60 [1] worked out at 50.1%; in the assay on HL-60 [2] it was 20.4%; in the assay with HL-60 [3], 5.02%; in the assay with HL-60 [4], 7.66%; with HL-60 [5], 80%; in the assay with HL-60 [6], 34.3%. The Activity in the assay with HL-60 [7] was determined as 2.21%; with HL-60 [8], 20.46%; in the assay on HL-60 [10], 63.2%; with HL-60 [11] it was 8.89%; with HL-60 [12], 20%; in the assay on HL-60 [13], 3.91%. The Activity with HL-60 [14] came to 60.8%; with HL-60 [15], 85.45%. For the same compound, the IC50 (commonly the midpoint of a concentration-inhibition curve) was 7.2 µM in [9], 80.7 µM in the assay with K562, 12.8 µM with MV4-11 and 15.2 µM in the assay on HCT-116. The MIC50 – broadly, an inhibitory concentration at the 50% level, which refers to growth in some studies and to a panel of isolates in others – with Escherichia coli was 413 µg/mL (≈ 632 µM).
